Experiments:
[1] = target: T1, Neuronal acetylcholine receptor; alpha3/beta4 (Rattus norvegicus, UniProt P04757+P12392); experiment: Antagonist activity at rat alpha3beta4 nAChR transfected in HEK293 cells by FLIPR membrane potential blue (FMP) assay; type: cell-based
[2] = target: Neuronal acetylcholine receptor; alpha4/beta4 (Rattus norvegicus, UniProt P09483+P12392); experiment: Displacement of [3H]epibatidine from rat alpha4beta4 nAChR transfected in HEK293 cells after 4 hrs by scintillation count analysis; type: cell-based
Neuronal acetylcholine receptor; alpha4/beta4, sequence (P09483 whole entry): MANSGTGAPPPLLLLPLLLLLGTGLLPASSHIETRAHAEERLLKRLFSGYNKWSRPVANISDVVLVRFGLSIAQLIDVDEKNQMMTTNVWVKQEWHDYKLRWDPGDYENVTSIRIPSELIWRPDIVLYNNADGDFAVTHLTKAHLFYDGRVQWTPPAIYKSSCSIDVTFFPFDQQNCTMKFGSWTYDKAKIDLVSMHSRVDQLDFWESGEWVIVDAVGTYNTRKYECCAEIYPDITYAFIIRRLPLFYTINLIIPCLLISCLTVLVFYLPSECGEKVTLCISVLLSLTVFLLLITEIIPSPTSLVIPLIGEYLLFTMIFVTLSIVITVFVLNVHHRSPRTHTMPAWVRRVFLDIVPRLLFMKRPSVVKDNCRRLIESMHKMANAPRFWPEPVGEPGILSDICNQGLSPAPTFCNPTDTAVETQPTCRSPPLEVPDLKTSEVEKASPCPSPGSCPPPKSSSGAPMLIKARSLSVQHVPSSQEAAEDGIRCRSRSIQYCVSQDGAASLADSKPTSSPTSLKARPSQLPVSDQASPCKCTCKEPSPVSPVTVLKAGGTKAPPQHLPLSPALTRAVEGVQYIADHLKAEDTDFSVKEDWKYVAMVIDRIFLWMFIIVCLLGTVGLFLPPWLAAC
Neuronal acetylcholine receptor; alpha4/beta4, sequence (P12392 whole entry): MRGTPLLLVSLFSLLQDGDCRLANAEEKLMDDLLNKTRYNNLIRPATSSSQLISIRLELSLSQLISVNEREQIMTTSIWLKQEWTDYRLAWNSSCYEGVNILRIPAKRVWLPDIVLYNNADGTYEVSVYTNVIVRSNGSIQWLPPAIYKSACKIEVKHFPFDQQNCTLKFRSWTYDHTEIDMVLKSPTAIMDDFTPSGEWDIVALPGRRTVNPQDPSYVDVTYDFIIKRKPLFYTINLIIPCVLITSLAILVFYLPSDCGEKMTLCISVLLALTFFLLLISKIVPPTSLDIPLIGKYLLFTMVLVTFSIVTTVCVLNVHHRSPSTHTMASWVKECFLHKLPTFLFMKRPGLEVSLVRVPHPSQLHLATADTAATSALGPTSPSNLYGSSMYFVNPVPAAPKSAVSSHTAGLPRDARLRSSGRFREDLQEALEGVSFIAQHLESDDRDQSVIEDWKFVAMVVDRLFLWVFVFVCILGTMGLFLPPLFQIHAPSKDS

[3] = target: Nicotinic acetylcholine receptor alpha-4/beta-2 (Mus musculus, UniProt Q8R493+Q9ERK7); experiment: Antagonist activity at mouse alpha4beta2 nAChR transfected in HEK293 cells by FLIPR membrane potential blue (FMP) assay; type: cell-based
Nicotinic acetylcholine receptor alpha-4/beta-2, sequence (Q9ERK7 whole entry): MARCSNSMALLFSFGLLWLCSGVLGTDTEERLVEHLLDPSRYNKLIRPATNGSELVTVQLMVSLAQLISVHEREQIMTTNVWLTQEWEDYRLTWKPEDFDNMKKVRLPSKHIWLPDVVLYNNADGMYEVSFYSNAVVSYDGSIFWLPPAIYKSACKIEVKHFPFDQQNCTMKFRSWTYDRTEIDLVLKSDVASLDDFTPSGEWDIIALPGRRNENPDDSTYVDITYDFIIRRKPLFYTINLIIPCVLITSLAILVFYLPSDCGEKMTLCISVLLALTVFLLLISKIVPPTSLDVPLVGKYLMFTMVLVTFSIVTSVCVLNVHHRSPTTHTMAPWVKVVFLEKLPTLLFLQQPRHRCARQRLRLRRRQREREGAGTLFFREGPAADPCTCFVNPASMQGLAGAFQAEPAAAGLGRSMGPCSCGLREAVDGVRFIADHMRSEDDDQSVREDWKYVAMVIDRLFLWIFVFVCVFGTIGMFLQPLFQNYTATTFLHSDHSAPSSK
Nicotinic acetylcholine receptor alpha-4/beta-2, sequence (Q8R493 whole entry): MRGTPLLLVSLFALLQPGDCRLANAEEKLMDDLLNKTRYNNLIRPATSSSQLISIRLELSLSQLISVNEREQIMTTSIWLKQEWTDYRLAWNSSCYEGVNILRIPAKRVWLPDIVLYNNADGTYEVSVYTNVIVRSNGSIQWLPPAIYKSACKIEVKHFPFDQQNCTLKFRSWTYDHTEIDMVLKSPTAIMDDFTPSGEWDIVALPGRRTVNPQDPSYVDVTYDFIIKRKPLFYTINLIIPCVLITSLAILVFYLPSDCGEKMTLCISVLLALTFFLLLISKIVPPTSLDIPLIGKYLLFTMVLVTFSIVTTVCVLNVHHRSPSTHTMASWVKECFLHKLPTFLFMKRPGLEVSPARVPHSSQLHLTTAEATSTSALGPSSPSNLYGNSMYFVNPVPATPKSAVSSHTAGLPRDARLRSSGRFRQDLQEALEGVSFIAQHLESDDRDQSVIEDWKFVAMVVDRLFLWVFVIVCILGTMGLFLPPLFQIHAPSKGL

[4] = target: T1, Neuronal acetylcholine receptor; alpha3/beta4; experiment: Displacement of [3H]epibatidine from rat alpha3beta4 nAChR transfected in HEK293 cells after 4 hrs by scintillation count analysis; type: cell-based
[5] = target: T2, Neuronal acetylcholine receptor; alpha4/beta2 (Rattus norvegicus, UniProt P09483+P12390); experiment: Displacement of [3H]epibatidine from rat alpha4beta2 nAChR transfected in HEK293 cells after 4 hrs by scintillation count analysis; type: cell-based
T2 sequence (P09483 whole entry): as the sequence (P09483 whole entry) above
T2 sequence (P12390 whole entry): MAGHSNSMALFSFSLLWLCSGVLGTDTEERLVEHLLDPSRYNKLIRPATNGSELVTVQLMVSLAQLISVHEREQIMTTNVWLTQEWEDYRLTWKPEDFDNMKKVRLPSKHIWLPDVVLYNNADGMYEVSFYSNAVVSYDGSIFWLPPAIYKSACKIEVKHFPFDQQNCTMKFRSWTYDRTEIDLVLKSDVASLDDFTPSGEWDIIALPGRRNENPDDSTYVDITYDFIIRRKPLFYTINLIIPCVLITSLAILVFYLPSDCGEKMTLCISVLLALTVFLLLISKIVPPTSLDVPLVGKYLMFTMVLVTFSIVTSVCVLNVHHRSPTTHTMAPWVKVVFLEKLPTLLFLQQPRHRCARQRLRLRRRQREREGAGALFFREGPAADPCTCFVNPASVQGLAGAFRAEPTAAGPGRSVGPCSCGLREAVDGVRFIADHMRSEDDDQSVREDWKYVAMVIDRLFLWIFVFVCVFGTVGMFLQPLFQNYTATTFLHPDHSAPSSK

[6] = target: T2, Neuronal acetylcholine receptor; alpha4/beta2; experiment: Inhibition of rat membrane alpha4beta2 nAChR by [3H]cytisine binding assay

T1 sequence (P04757 whole entry): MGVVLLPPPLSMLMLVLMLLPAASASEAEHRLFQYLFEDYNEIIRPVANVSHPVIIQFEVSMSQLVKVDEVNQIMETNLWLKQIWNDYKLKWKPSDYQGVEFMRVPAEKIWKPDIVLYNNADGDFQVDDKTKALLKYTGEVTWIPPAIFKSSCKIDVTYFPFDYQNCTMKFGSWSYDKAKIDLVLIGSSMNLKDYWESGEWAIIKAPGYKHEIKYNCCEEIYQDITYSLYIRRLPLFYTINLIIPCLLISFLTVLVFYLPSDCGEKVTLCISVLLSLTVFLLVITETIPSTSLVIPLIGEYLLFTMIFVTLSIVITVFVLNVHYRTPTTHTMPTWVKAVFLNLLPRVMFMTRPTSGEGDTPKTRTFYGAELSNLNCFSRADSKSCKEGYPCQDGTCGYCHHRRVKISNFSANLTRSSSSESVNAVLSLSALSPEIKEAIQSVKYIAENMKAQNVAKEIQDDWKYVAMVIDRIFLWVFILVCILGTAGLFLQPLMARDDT
T1 sequence (P12392 whole entry): as the sequence (P12392 whole entry) above

CN1CCC2=CC[C@H](O)C[C@@H]21 (racemic)
IC50 [1]: > 300 µM
Ki [2]: > 300 µM
IC50 [3]: > 100 µM
Ki [4]: > 300 µM
Ki [5]: 300 µM

CO[C@H]1CC[C@H]2CCN3CCC4=C(CC(=O)OC4)[C@]23C1
Ki [6]: 7.4 µM

CCO[C@H]1CC[C@H]2CCN(C)[C@H]2C1 (racemic)
IC50 [1]: > 300 µM
Ki [2]: > 300 µM
IC50 [3]: > 300 µM
Ki [4]: 300 µM
Ki [5]: 300 µM

CO[C@H]1CC=C2CCN[C@H]2C1 (racemic)
IC50 [1]: > 300 µM
Ki [2]: > 300 µM
IC50 [3]: 100 µM
Ki [4]: > 300 µM
Ki [5]: 300 µM

CO[C@H]1C=CC2=CCN3CCC4=C(CC(=O)OC4)[C@]23C1
Ki [6]: 1.1 µM

CO[C@H]1CC=C2CCN3CCC4=C(CC(=O)OC4)[C@]23C1
Ki [6]: 0.14 µM
Ki [2]: 100 µM
IC50 [3]: 1.2 µM
Ki [4]: 100 µM
Ki [5]: 0.82 µM

CO[C@H]1CC=C2CCN(C)[C@H]2C1 (racemic)
IC50 [1]: > 300 µM
Ki [2]: 100 µM
IC50 [3]: 30 µM
Ki [4]: 100 µM
Ki [5]: 3.4 µM

CN1CC[C@@H]2CC[C@H](O)C[C@@H]21 (racemic)
IC50 [1]: > 300 µM
Ki [2]: > 300 µM
IC50 [3]: > 300 µM
Ki [4]: > 300 µM
Ki [5]: > 300 µM

CN1CCC2=CC[C@H](OCc3ccccc3)C[C@@H]21 (racemic)
IC50 [1]: > 300 µM
Ki [2]: 300 µM
IC50 [3]: > 300 µM
Ki [4]: 300 µM
Ki [5]: 300 µM

CCO[C@H]1CC=C2CCN(C)[C@H]2C1 (racemic)
IC50 [1]: > 300 µM
Ki [2]: > 300 µM
IC50 [3]: > 300 µM
Ki [4]: > 300 µM
Ki [5]: 300 µM

CN1CC[C@@H]2CC[C@H](OCc3ccccc3)C[C@@H]21 (racemic)
IC50 [1]: > 300 µM
Ki [2]: 300 µM
IC50 [3]: > 300 µM
Ki [4]: 100 µM
Ki [5]: 100 µM

COCCO[C@H]1CC[C@H]2CCN(C)[C@H]2C1 (racemic)
IC50 [1]: > 300 µM
Ki [2]: > 300 µM
IC50 [3]: > 300 µM
Ki [4]: 300 µM
Ki [5]: 300 µM

O[C@H]1CC=C2CCN[C@H]2C1 (racemic)
IC50 [1]: > 300 µM
Ki [2]: > 300 µM
IC50 [3]: > 300 µM
Ki [4]: > 300 µM
Ki [5]: > 300 µM

COCCO[C@H]1CC=C2CCN(C)[C@H]2C1 (racemic)
IC50 [1]: > 300 µM
Ki [2]: > 300 µM
IC50 [3]: > 300 µM
Ki [4]: > 300 µM
Ki [5]: > 300 µM

CO[C@H]1CC[C@H]2CCN(C)[C@H]2C1 (racemic)
IC50 [1]: > 300 µM
Ki [2]: > 300 µM
IC50 [3]: > 300 µM
Ki [4]: > 300 µM
Ki [5]: 300 µM

O[C@H]1CC[C@H]2CCN[C@H]2C1 (racemic)
IC50 [1]: > 300 µM
Ki [2]: > 300 µM
IC50 [3]: > 100 µM
Ki [4]: > 300 µM
Ki [5]: > 300 µM

CO[C@H]1C=CC2=CCN(C)[C@H]2C1 (racemic)
IC50 [1]: > 300 µM
Ki [2]: > 300 µM
IC50 [3]: 100 µM
Ki [4]: > 300 µM
Ki [5]: 30 µM
